Assay results from patent US20060189539A1, “Novel GnRH analogues with antitumour effects and pharmaceutical compositions thereof” (priority 1994, published 2006).
Entries after “also recorded” stand apart in the source; their conditions may differ.

Experiments:
[1] = tested on: Ishikawa human endometrium carcinoma cell line; assay: Inhibition of colony formation (dose-survival), Example 18; type: cell-based; details: for Inhibition of colony formation: 30 to 50 μM
Text: (§1) Human cell lines used in in vitro experiments. MCF-7 human mammary tumour cell line was stabilized in 1973 by Soule et al. from the pleural fluid of mammary carcinoma patients. The cells grow in monolayer and are epithelial in their character. MDA-MB-231 human mammary carcinoma cell line was isolated and stabilized in 1974 by Cailleau et al. similarly from pleural fluid. These cells also grow in monolayer. PC3 human prostate carcinoma cell line was stabilized 20 in 1979 in cell culture by Kaighn et al.; the cells are of simple epithelium type and form compact colonies in clonogenic assays. Ishikawa cell line originated from adenocarcinoma of human endometrium [Nishida et al.: Obstet. Gynecol. Jpn, 37, 25 1103-1111 (1985)], has epithelial character and contains steroid as well as GnRH receptors. Human tumour cell lines are maintained in plastic flasks (Greiner) in Dulbecco-6modified Eagle-MEM (DMEM GIBCO) nutritive medium. The medium used herein contained 10% of fetal calf serum (FCS).
(§2) In the case of cytostatics the cell-damaging effect is not cell-specific. […] One part of the arrested cells again go into the cycle, the other part may perish (apoptosis). […] The investigations were carried out on MCF-7 and MDA-MB-231 human mammary carcinoma cell lines, PC3 human prostate 15 carcinoma cell line and Ishikawa human endometrium carcinoma cell line. Threehundred cells were set into Petri dishes of 3.5 cm in diameter each. The treatment was carried out once, 24 hours following the explantation, then the colonies formed were counted after 9 to 12 days.

[2] = tested on: MCF-7 human mammary carcinoma cell line; assay: as above; type: cell-based; details: 50 μM
Text: as §1, §2

[3] = tested on: MDA-MB-231 human mammary carcinoma cell line; assay: as above; type: cell-based; details: 50 μM
Text: as §1, §2

[4] = tested on: PC3 human prostate carcinoma cell line; assay: as above; type: cell-based; details: for Inhibition of colony formation: 30 to 50 μM
Text: as §1, §2

[5] = tested on: MCF-7 human mammary carcinoma cells; assay: In vitro inhibition of cell proliferation (cell count), Example 19; type: cell-based; details: 30 μM of active substance, conjugate, treated once, cell count on 7th day
Method: (§3) The procedure of treatment was as follows. After trypsinization the cells, 400,000 cells of MCF-7, MDA-MB-231 human mammary carcinoma, PC3 human prostate carcinoma or Ishikawa human endometrium tumour each were passed into Petri dishes of 10 cm in diameter. Starting from the day following transfer, the cells were treated with the substances to be tested in solution prepared with the nutrient medium during the exponential growth phase. The cultures were treated with 1 to 50 μM (calculated for the total volume of the culture) of MI-1544 GnRH antagonist, MI-1892 chicken GnRH antagonist or SJ-1004 GnRH […] on the 7th day.

[6] = tested on: MDA-MB-231 human mammary carcinoma cells; assay: as above; type: cell-based; details: 30 μM of active substance, conjugate, treated once, cell count on 7th day
Method: as §3

[7] = tested on: Ishikawa human endometrium tumour cells; details: 30 μM of active substance, conjugate, treated once
Text: The procedure of treatment was as follows. After trypsinization the cells, 400,000 cells of MCF-7, MDA-MB-231 human mammary carcinoma, PC3 human prostate carcinoma or Ishikawa human endometrium tumour each were passed into Petri dishes of 10 cm in diameter. […]

[8] = tested on: PC3 human prostate carcinoma cells; assay: In vitro inhibition of cell proliferation (cell count), Example 19; type: cell-based; details: 30 μM of active substance, conjugate, treated once
Method: The procedure of treatment was as follows. After trypsinization the cells, 400,000 cells of MCF-7, MDA-MB-231 human mammary carcinoma, PC3 human prostate carcinoma or Ishikawa human endometrium tumour each were passed into Petri dishes of 10 cm in diameter. Starting from the day following transfer, the cells were treated with the substances to be tested in solution prepared with the nutrient medium during the exponential growth phase. […]

[9] = tested on: MCF-7 xenograft; assay: In vivo antitumour effect on MCF-7 xenograft; parameters: species or system immunosuppressed CBA/Ca mice; details: for Influence on the rate of tumour growth: first study, conjugates 150 μg in every 3rd day, P-GFLG-OH daily s.c. corresponding to 50 μg
Method: (§4) The immunosuppression of mice was carried out by using the method of Steel et al. (1978).
(§5) CBA/Ca female mice of about 6 weeks old were thymectomized and then, after one week, they were irradiated with 60Co (whole body irradiation; the lethal dose is 9.5 Gray). Within 24 hours 3 to 5×10^5 myelocytes were injected to the animals. Beneath the skin of the immunosuppressed mice 2×10^7 tumour cells or, in the case of later passages, about 2 mm^3 of tumour cells or in the case of later, additional passages about 2 mm^3 of tumour pieces were implanted. […] The treatment with steroid hormone was stopped by at least one week before beginning the investigation.
In the case of MCF-7 tumours (xenografts) the examinations were carried out with passages being in the phase of the 37th and 38th, respectively, transplantations.
In the case of mice bearing MCF-7 xenograft, the treatment was begun in the 4th week following xeno-transplantation.
(§6) Recent investigations have begun on 28 animals bearing MCF-7 xenograft .and on 28 animals bearing MDA-MB-231 xenograft. On animals bearing MCF-7 tumour the treatment was commenced in the 5th week following xeno-transplantation; the tumour volume was 205 to 225 mm^3. On animals bearing MDA-MB-231 tumour, the treatment was started in the 4th week after xeno-transplantation with a tumour volume of 140 to 150 mm^3. […] The control groups were daily treated with physiological saline s.c. (Each treated group consisted of 7 animals.)

[10] = tested on: MDA-MB-231 xenograft; assay: In vivo antitumour effect on MDA-MB-231 xenograft; parameters: species or system immunosuppressed CBA/Ca mice; details: for Animals from 7 treated that became tumour-free: 6th week of treatment, 100 μg daily s.c.; for Tumour-free animals: end of the 6th week, first series
Method: as §4, §5, §6
A more recent study was started on 28 animals bearing. MDA-MB-231 xenograft. The treatment was begun in the 4th or 5th week following xenotransplantation. The tumour volume was 0.165 to 0.194 cm3. […] (For treatment of the control group, see the preceding Examples). Each group consisted of 7 animals.

[11] = Castration effect: uterus weight of xenograft-bearing animals; type: in vivo, mice
[12] = tested on: MCF-7 human mammary carcinoma cell line; assay: Inhibition of colony formation (dose-survival), Example 48; type: cell-based; details: 10 μM
Text: MCF-7 human mammary carcinoma cell line was stabilized in 1973 by Soule et al. from the pleural fluid of a patient suffering from mammary carcinoma. MDA-MB-231 human mammary carcinoma cell line was isolated and stabilized by Cailleau et al. in 1974 similarly from pleural fluid. Both cell lines grow in monolayer. […] MCF-7 cell line is estradiol receptor (ER)-positive containing proteins specifically binding GnRH. Thus, it represents, a useful model system for investigating the direct effect of GnRH mediated by the GnRH receptor. Being ER-negative and GnRH receptor-positive, MDA-MB-231 cell line is similarly suitable to study the direct effect of GnRH. PC3 human prostate carcinoma cell line was stabilized in cell culture by Kaighn et al. in 1979. The cells are of epithelial type and form compact colonies in clonogenic assays. The Ishikawa cell line originates from human endometrial adenocarcinoma [M. Nishida et al.: Acta Obstet. Gynecol. Jpn. 37, 1103-1111 (1985)], it is epithelial in its character and contains steroid-as well as GnRH receptors. The examination gives accurate information about the cell-damaging effect of the substance tested as a function of varying doses. The treatment was carried out once; the colonies formed from the surviving cells were counted after 8-12 days. […] A part of the arrested cells again entered the cycle, an other part of them might be destroyed (apoptosis). […] The treatment was once carried out 24 hours after setting, then the colonies formed were counted after 8-12 days. The cells were treated once after 24 hours with 1-50 μM of various GnRH analogues of Examples above or with 1-50 μM of GnRH-III, respectively. The percentages of inhibition obtained on MCF-7, MDA-MB-231, PC3 and Ishikawa cells, respectively, together with the dose of the active agent used are shown in Table VIII.

[13] = tested on: MXT mouse mammary tumour; assay: In vivo antitumour effect on MXT mouse mammary tumour; parameters: species or system CBA/Ca mice; details: 75 μg/day/animal s.c.; day 17
Method: The MXT mouse mammary carcinoma contains ER and PgR proteins; furthermore, it contains also GnRH receptors; therefore, this in vivo tumor model is suitable for studying both the direct and indirect effects. The treatment of mice bearing MXT mammary tumour was commenced on the day following transplantation. […] The animals were daily treated in s.c. route starting from the day following transplantation of MXT mouse mammary tumour. […] MI-1544: 75 μg/day/animal; MI-1892: 75 μg/day/animal.

[14] = tested on: B-lymphocytes; assay: Humoral immune response (antibody production of B-lymphocytes); type: in vivo, mice; details: dose not stated
[15] = tested on: T-lymphocytes; assay: Cellular immune response (rosette formation against BRBC antigen); type: in vivo, mice; details: dose not stated
Text: The immunosuppressive side effect of cytostatics used in tumour therapy is commonly known. This effect can be compensated to a certain grade by various immunostimulants (endotoxin, levamisole). Polypeptides with much […] molecular weights (about 40,000 to 80,000) are also capable of protecting against immunosuppressive effect [Gal et al.: J. Biol. Resp. Modif. 5, 148-159 (1986)). The molecular weight of the novel polyanionic P-GFLG-OH macromolecule tested by us is about 10,000, that of MI-1892 is about 2000, i.e. relatively low; therefore, their immunostimulatory activity was unexpected.

[16] = tested on: ovulation of female rats; assay: Ovulation / cycle of female rats during treatment for three cycles; type: in vivo, rat; details: high dose of the coupled GnRH-III; three cycles observed
Text: In 1993, researchers isolated and synthesized the Lamprey-III-GnRH decapeptide from lamprey (Petromyzon marinus) (p[…]NH2).
On comparison to healthy individuals, the functioning of the protective mechanism (immunostatus) of patients suffering from tumour is more unfavourable. Since the protective (immune) mechanism is enhanced by the compound, its tumour-inhibiting action can more strongly become valid. […] This effect may particularly be preferred on young patients suffering from mammary tumour, where a castration would cause psychic disturbances. In a way different from other conjugates, P-GFLG-GnRH-III gradually induces an inhibition of continually increasing grade during the long-lasting treatment for 7 weeks; and at the end of treatment, tumour-free animals are observed whereas in the case of other conjugates the degree of inhibition increases only up to the fifth week of treatment, then a stagnation in the grade of inhibition can be observed.

[17] = animals bearing MCF-7 xenografts, treatment for four weeks
[18] = animals bearing MDA-MB-231 xenografts, treatment for twelve weeks

For “Ac-D-Trp1,3,D-Cpa2,{D-Lys[n-poly-(N-vinylpyrrolidone-co-maleic acid)-Gly-Phe-Leu-Gly]}6. D-Ala10-GnRH [P-GFLG-1544]”, the “Inhibition of colony formation” value [1] was 100%, the “% Inhibition of colony formation” value [2] was 100% and the “% Inhibition of colony formation” value [3] was 100%. For the same substance, the “% Inhibition of colony formation” value ([4]; 10 μM) was 100%, the “% Inhibition of colony formation” value ([4]; 50 μM) was 100% and the “Inhibition of colony formation” value [4] was 100%. For the same substance, the “% Inhibition of cell division” value [5] was 58%, the “% Inhibition of cell division” value [6] was 45% and the “% Inhibition of cell division” value [7] was 95%. The “% Inhibition of cell division” value [8] was 68.5%, the Inhibition % ([9]; 1 × 50 μg, week 2) was 30% and the Inhibition % ([9]; 1 × 50 μg, week 6) was 49%. For the same substance, the “Tumour volume as control (%)” value ([9]; 1 × 50 μg, week 6) was 51%, the “Influence on the rate of tumour growth” value [9] was “not influenced” and the Tumour-free animals ([9]; repeated study, 6th week) was “a tumour-free animal was found”. The Tumour volume ([10]; 1 × 50 μg daily s.c., week 2) was 0.21 cm3, the Tumour volume ([10]; 1 × 50 μg daily s.c., week 3) was 0.24 cm3 and the “Tumour volume as control (%)” value ([10]; 1 × 50 μg daily s.c., week 3) was 66%. For the same substance, the Tumour volume ([10]; 1 × 50 μg daily s.c., week 6) was 0.36 cm3, the “Tumour volume as control (%)” value ([10]; 1 × 100 μg daily s.c., week 3) was 65% and the “Animals from 7 treated that became tumour-free” value [10] was 1. The Tumour-free animals [10] was “A tumour-free animal was found”, the “Decrease of uterus weight” value [11, 17] was 42% and the “Decrease of uterus weight” value [11, 18] was 50%. For the same substance, the “% Inhibition of colony formation” value [12] was 15%.
For “Ac-D-Trp^1,3,D-Cpa^2,{Lys[n-poly(N-vinyl pyrrolidone-co-maleic acid)-Gly-Phe-Leu-Gly-]}5, [a-Asp(DEA)]6, D-Ala10-GnRH [P-GFLG-1892]”, the “% Inhibition of colony formation” value ([1]; 30 μM) was 100%, the “Inhibition of colony formation” value [1] was 100% and the “Inhibition of colony formation” value [4] was 100%. For the same substance, the “% Inhibition of cell division” value [5] was 45%, the “% Inhibition of cell division” value [6] was 42% and the “% Inhibition of cell division” value [7] was 91%. For the same substance, the “% Inhibition of cell division” value [8] was 51%, the Inhibition % ([9]; 1 × 50 μg, week 2) was 30% and the “Influence on the rate of tumour growth” value [9] was “not influenced”. For the same substance, the Tumour volume ([10]; 1 × 75 μg daily s.c., week 6) was 0.33 cm3, the Tumour-free animals [10] was “A tumour-free animal was found” and the “Tumour volume as control (%)” value [13] was 36%. For the same substance, the “Decrease of uterus weight” value [11, 17] was 39%, the “Decrease of uterus weight” value [11, 18] was 20% and the “Effect on the humoral immune response” value [14] was “strengthened; also recorded: immunostimulatory effect”. The “Effect on the cellular immune response (activity of T-lymphocytes against BRBC antigen)” value [15] was “increased; also recorded: twofold”.
With “{Lys[n-poly(N-vinylpyrrolidone-co-maleic acid)-Gly-Phe-Leu-Gly-]}8,-GnRH-III [P-GFLG-GnRH-III]” the Tumour volume ([10]; 1 × 100 μg daily s.c., week 6) was 0.40 cm3, the “Animals from 7 treated that became tumour-free” value [10] was 2 and the “Influence on the cycle of female rats (castration effect)” value [16] was “not influenced”.
